Values of other authors, collected in patent US20240075000A1 (priority 2021, published 2024).

What was measured:
[1] = test system: resistance-trained adults; details: in vivo; cited from earlier work
[2] = test system: fetus; details: in vivo; cited from earlier work

SMILES | effects on muscular performance [1] | animal reproduction studies, finding [2]
Cn1c(=O)c2c(ncn2C)n(C)c1=O [Caffeine] | minimal effects on muscular performance | 
NC(=O)C[S+]([O-])C(c1ccccc1)c1ccccc1 (centres unmarked) [Modafinil] |  | adverse effect on the fetus
CC(N)Cc1ccccc1 (centres unmarked) [amphetamine] |  | adverse effect on the fetus
C[C@H](N)Cc1ccccc1 [dextroamphetamine] |  | adverse effect on the fetus
COC(=O)C(c1ccccc1)C1CCCCN1 (centres unmarked) [methylphenidate] |  | adverse effect on the fetus
